Data set [1] is described as follows: Pharmacokinetics parameters in rats. Format: in vivo. To be noted: rat, plasma; for Vd: intravenous, read-out: Volume of distribution; for clearance: iv, after i.v. administration; for half-life: read-out: Terminal plasma half-life (converted). The procedure: The pharmacokinetic parameters of several compounds were investigated in rodents. Both oral and iv administration were investigated in rats. Blood samples were collected over time; plasma was analyzed using an LC/MS-MS method. Pharmacokinetic parameters were calculated using Win-NonLin. Terminal plasma half-lives were 7.10 hr for ACT-MIF-001, 1.66 hr for ACT-MIF-002, and 1.50 hr for ACT-MIF-003. […] The volume of distribution values were 72666 mL/kg for ACT-MIF-001, 2118 mL/kg for ACT-MIF-002, and 1926 mL/kg for ACT-MIF-003.

The next data set has as its system pancreatic tumor model. Kind of data set: Efficacy study in a pancreatic tumor model. In kind it is in vivo. Particulars: daily 40 mg/kg IP; for Survival: FIG. 10. The procedure:
The activity of the compounds of the invention was investigated in a pancreatic tumor model using an experiment similar to the one described in EXAMPLE 69. Compounds ACT-MIF-002 and ACT-MIF-003 were dosed daily at 40 mg/kg via IP administration.
Lumbar regions of the control and treated groups were excised and sent for histopathological evaluation. […] In the example shown in FIG. 11, bone marrow of the vehicle treated mice is consistent with bone metastases (1) with evidence of surrounding skeletal muscle metastases from invading marrow tumor cells (2 and 3).

The test system of the next data set is MDR1-MDCK monolayers. The data set can be described thus: MDR1-MDCK cell permeability and transport. In kind it is in vitro ADME. To be noted: for Efflux: class in words. Here is the method:
(§1) Cell permeability and transport mechanisms in Caco-2 and MDR1-MDCK monolayers experiments were performed in triplicate in the apical-to-basolateral and basolateral-to-apical direction using […]® wells containing either Caco-2 or MDR1-MDCK monolayers. A modified Hanks buffer pH 7.4 was used in both reservoir and receiver wells with the addition of 1% BSA in the receiver side. Confluent monolayers were used and their integrity was verified using reference compounds (Atenolol as a low permeability reference compound and Propanolol as a high permeability reference compound). A sample in the basolateral and apical sides was taken after 2 hours and the concentration measured by LC/MS-MS.

The test system of data set [2] is Chick Chorioallantoic Membrane (CAM). The data set can be described thus: Chick chorioallantoic membrane (CAM) assay, o ring. Format: in vivo. To be noted: for Blood Vessel Density: o ring; for Anti-angiogenic properties: CAM assay, in words. Here is the method: 8 groups with 10 embryos in each group were used in the experiment described below. Fresh fertile eggs were incubated for 3 days in a standard egg incubator at 37° C. for 3 days. On Day 3, eggs were cracked under sterile conditions and embryos were placed into 20×100 mm plastic plates and cultivated at 37° C. in an embryo incubator with a water reservoir on the bottom shelf. Air was continuously bubbled into the water reservoir using a small pump so that the humidity in the incubator is kept constant. On Day 6, a sterile silicon “o” ring was placed on each CAM and test compound dissolved in 0.5% methylcellulose was placed into each “o” ring in a sterile hood. Paclitaxel was used as a positive control. Embryos were returned to the incubator after addition of test material. Control embryos received 10 μL of vehicle alone. On Day 8, embryos were removed from the incubator and kept at room temperature while blood vessel density were determined under each “o” ring using an image capturing system at a magnification of 160×. The blood vessel density was measured using an angiogenesis scoring system in that arithmetic numbers 0 to 5 (or exponential numbers 1 to 32) are used to indicate number of blood vessels present at the treatment sites on the CAM. Number 5 represents the highest density and 0 represents no angiogenesis. The percent of inhibition at each dosing site was calculated using the score recorded for that site divided by the mean score obtained from the appropriate control samples for each individual experiment. The percent of inhibition for each dose of a given compound was calculated by pooling all results obtained for that dose from 8-10 embryos.

A further data set is described as follows: in vitro. In kind it is in vitro ADME. To be noted: human, plasma, Human Plasma Protein Binding % Bound. The source says: Plasma protein binding was ascertained using dialysis equilibrium methods known in the art.
The test system of a further data set is Caco-2 monolayers. Kind of data set: Caco-2 cell permeability and transport. In kind it is in vitro ADME. The arrangement: Caco-2 Permeability Papp B-A / Caco-2 Permeability Papp A-B: unit not given here. To be noted: for Caco-2 Permeability Papp A-B: apical-to-basolateral. The procedure: as §1
A general note: Passage across Caco-2 layers is used to estimate intestinal permeability.

A short description of data set [3]: Microsomal stability in human liver microsomes. Format: in vitro ADME. Particulars: both, human, microsomes, pH 7.4. The procedure:
Stability in human liver microsomes was tested over […] at 37° C. using pooled mixed gender human liver microsomes. Liver microsomes were prepared at 1.0 mg/ml of microsomal protein in a 100 mM potassium phosphate pH 7.4 buffer with 1 mM NADPH. The media was incubated at 37° C. with the compound in solution in DMSO. The concentration of the compound was followed by LC/MS-MS as a function of time. Samples were assayed at t=0, 30, 60 and 120 minutes. Testosterone was used as a positive control. The same experiment was performed with mouse liver microsomes instead of human liver microsomes.

Another data set has as its system Du 145. Kind of data set: Inhibition of tumor cells proliferation (CellTiter Glo). In kind it is cell-based. Particulars: Homo sapiens, 72 hours. Here is the method:
Inhibition of the proliferation of tumor cells was investigated in vitro in several tumor cell lines. Cells of the desired tumor cell line were plated at 2×10^5 cells/ml in 96 well plates. Twice the indicated concentrations of the compounds of the invention were added to cells the following day in an equal volume of media. 72 hours later, cells were lysed and subjected to ATP determination using the CellTiter Glo-Luminescent Cell Viability Assay kit (Promega, Madison, Wis.). Experiments were done in triplicate. Results for the inhibition of cells proliferation are reported as IC50 (the concentration leading to a 50% inhibition of proliferation of the cell population) and are listed in Table 6. FIGS. 3 and 4 show bar graphs comparing the IC50s of specific embodiments of compounds of the invention across multiple tumor cell lines.

For the next data set, the target named is T1, MIF (Homo sapiens, UniProt P14174).
T1 construct: the enzymatic activity of MIF present in cell lysates; endogenous in cells
T1 sequence (P14174 2-115 limits assumed): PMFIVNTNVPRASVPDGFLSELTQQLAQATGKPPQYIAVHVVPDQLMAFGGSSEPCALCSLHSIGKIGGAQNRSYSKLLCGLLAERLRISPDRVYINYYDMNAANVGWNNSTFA
The data set can be described thus: MIF cell lysate enzymatic inhibition. Format: biochemical. To be noted: cell lysates. The procedure:
Normal or transformed cell lysates can be used to determine the concentration inhibiting the enzymatic activity of MIF present in cell lysates. Cells are cultured in the appropriate media to the required number of cells, collected, and lysed. Compounds to be characterized are solubilized in DMSO and serial dilutions are performed in order to obtain a range of concentrations including complete and no quantifiable inhibition.

Data on two compounds can be found in patent US20180009764A1, “METHOD FOR TREATING MACROPHAGE MIGRATION INHIBITORY FACTOR (MIF)-IMPLICATED DISEASES AND CONDITIONS WITH IODO PYRIMIDINE DERIVATIVES” (UNIVERSITY OF LOUISVILLE RESEARCH FOUNDATION, INC., priority 2009, published 2018).

SMILES strings stand for the structures.

For orientation: clearance means a measure of how efficiently the substance is removed, as volume per time. The half-life is how long it takes for the measured level to halve. Broadly, the fraction unbound is free concentration divided by total concentration. In general, IC50 refers to the concentration at which inhibition is half-maximal. For `Fc1ccccc1-c1cc(I)ncn1` [ACT-MIF-003, 4-Iodo-6-(2-fluorophenyl)pyrimidine], in data set [1], the Vd was determined as 1.93 L/kg, the clearance was 11.8 L/h/kg and the half-life was 1.5 h. Further, in the data set on pancreatic tumor model, the “Body weight and clinical signs of toxicity” value is “no body weight loss and no clinical signs of toxicity”; the Metastatic tumor burden result is given as “limited the metastatic tumor burden”; the Survival entry is “significant impact on survival”. Moreover, in the data set with MDR1-MDCK monolayers, the Brain penetration classification result was “High”, the “P-gp Substrate” value was “No” and the Efflux result was “High”. For the same compound, the “Blood Vessel Density” value in data set [2] (0.3 nM per CAM) amounted to 11.6 ± 1.2. The “Blood Vessel Density” value in data set [2] (3 nM per CAM) worked out at 4.2 ± 1.2. In [2] (30 nM per CAM), the “Blood Vessel Density” value turned out to be 4.1 ± 0.7. The Anti-angiogenic properties result in [2] is on record as “high anti-angiogenic properties”. In “in vitro”, the free fraction (fraction unbound) was 0.038. Also, the “Caco-2 Permeability Class” value in the data set with Caco-2 monolayers is reported as “High”. Besides, in the data set with Caco-2 monolayers (pH 7.4, 2 hours), the “Caco-2 Permeability Papp A-B” value is recorded as 2.1. In addition, the “Caco-2 Permeability Papp B-A” value in the data set on Caco-2 monolayers (basolateral-to-apical, pH 7.4, 2 hours) worked out at 2.6. In addition, the “Metabolic Stability in Human Microsomes % Remaining” value in [3] (0 h) is 100%. Also, the “Metabolic Stability in Human Microsomes % Remaining” value in data set [3] (1 h) is listed as 57%. Further, the IC50 in the data set with Du 145 was determined as 16.5 µM. Besides, half-maximal inhibition at MIF (IC50) was put at 0.2 µM.
As to `COc1ccc(-c2cc(I)ncn2)c(F)c1` [ACT-MIF-002, 4-Iodo-6-(2-fluoro-4-methoxyphenyl)pyrimidine], in data set [1], the Vd is 2.12 L/kg, the clearance was 7.91 L/h/kg and the half-life was 1.66 h. For the same compound, in the data set with pancreatic tumor model, the “Body weight and clinical signs of toxicity” value is “no body weight loss and no clinical signs of toxicity”; the Metastatic tumor burden result was “limited the metastatic tumor burden”; the Survival entry was “significant impact on survival”. Also, the “Bone metastases, histopathology of lumbar region” value with pancreatic tumor model (FIG. 11) is “no evidence of bone metastases”. For the same compound, in the data set on MDR1-MDCK monolayers, the Brain penetration classification result is on record as “Low”, the “P-gp Substrate” value is reported as “No” and the Efflux entry was “High”. The “Blood Vessel Density” value in data set [2] (0.3 nM per CAM) is listed as 9.4 ± 2.4. Also, the “Blood Vessel Density” value in [2] (3 nM per CAM) came out at 8.6 ± 2.6. The “Blood Vessel Density” value in data set [2] (30 nM per CAM) is 4.4 ± 1.3. Moreover, in data set [2], the Anti-angiogenic properties entry is on record as “high anti-angiogenic properties”. In the data set “in vitro”, this compound showed a fraction unbound of 0.021. Besides, in the data set on Caco-2 monolayers, the “Caco-2 Efflux” value turned out to be 1.7 and the “Caco-2 Permeability Class” value is given as “Low”. Besides, in the data set on Caco-2 monolayers (pH 7.4, 2 hours), the “Caco-2 Permeability Papp A-B” value stood at 0.2. Also, in data set [3] (0 h), the “Metabolic Stability in Human Microsomes % Remaining” value was determined as 100%. The “Metabolic Stability in Human Microsomes % Remaining” value in data set [3] (1 h) is listed as under 2%. For the same compound, in the data set with Du 145, the IC50 worked out at 24.9 µM. Moreover, the 50% inhibitory concentration (IC50) against MIF was found to be 0.07 µM.
